From ChEMBL document CHEMBL4387741, “Optimization of novel reversible Bruton's tyrosine kinase inhibitors identified using Tethering-fragment-based screens” (Bioorg Med Chem, 2019)

How the values were obtained:
[1] = molecular target: Serine/threonine-protein kinase Nek1 (Homo sapiens) (UniProt Q96PY6); test: Inhibition of wild-type human partial length NEK1 (M1 to K278 residues) expressed in bacterial expression system at 1 uM by Kinomescan method relative to control
[2] = molecular target: Serine/threonine-protein kinase DCLK1 (Homo sapiens) (UniProt O15075); test: Inhibition of wild-type human partial length DCAMKL1 (L270 to A662 residues) expressed in mammalian expression system at 1 uM by Kinomescan method relative to control
[3] = molecular target: NUAK family SNF1-like kinase 1 (Homo sapiens) (UniProt O60285); test: Inhibition of wild-type human partial length ARK5 (E25 to I332 residues) expressed in bacterial expression system at 1 uM by Kinomescan method relative to control
[4] = molecular target: NUAK family SNF1-like kinase 2 (Homo sapiens) (UniProt Q9H093); test: Inhibition of wild-type human partial length SNARK (P22 to A333 residues) expressed in mammalian expression system at 1 uM by Kinomescan method relative to control
[5] = tested on: Phosphatidylinositol 4,5-bisphosphate 3-kinase catalytic subunit alpha isoform (Homo sapiens), P42336 [H1047L]; test: Inhibition of human partial length PIK3CA H1047L mutant (R108 to N1068 residues) expressed in mammalian expression system at 1 uM by Kinomescan method relative to control
[6] = molecular target: Serine/threonine-protein kinase Nek3 (Homo sapiens) (UniProt P51956); test: Inhibition of wild-type human full length NEK3 (M1 to R506 residues) expressed in mammalian expression system at 1 uM by Kinomescan method relative to control
[7] = molecular target: Dual specificity tyrosine-phosphorylation-regulated kinase 2 (Homo sapiens) (UniProt Q92630); test: Inhibition of wild-type human full length DYRK2 (M1 to S528 residues) expressed in mammalian expression system at 1 uM by Kinomescan method relative to control
[8] = molecular target: MAP/microtubule affinity-regulating kinase 4 (Homo sapiens) (UniProt Q96L34); test: Inhibition of wild-type human partial length MARK4 (K29 to G340 residues) expressed in bacterial expression system at 1 uM by Kinomescan method relative to control
[9] = molecular target: Serine/threonine-protein kinase PLK1 (Homo sapiens) (UniProt P53350); test: Inhibition of wild-type human partial length PLK1 (A33 to F325 residues) expressed in mammalian expression system at 1 uM by Kinomescan method relative to control
[10] = molecular target: Ephrin type-A receptor 2 (Homo sapiens) (UniProt P29317); test: Inhibition of wild-type human partial length EPHA2 (T593 to V891 residues) expressed in bacterial expression system at 1 uM by Kinomescan method relative to control
[11] = molecular target: Maternal embryonic leucine zipper kinase (Homo sapiens) (UniProt Q14680); test: Inhibition of wild-type human full length MELK (M1 to V651 residues) expressed in bacterial expression system at 1 uM by Kinomescan method relative to control
[12] = molecular target: Mitogen-activated protein kinase 4 (Homo sapiens) (UniProt P31152); test: Inhibition of wild-type human partial length ERK4 (M1 to L365 residues) expressed in bacterial expression system at 1 uM by Kinomescan method relative to control
[13] = molecular target: cAMP-dependent protein kinase catalytic subunit alpha (Homo sapiens) (UniProt P17612); test: Inhibition of wild-type human partial length PKAC-alpha (G10 to F351 residues) expressed in bacterial expression system at 10 uM by Kinomescan method relative to control
[14] = molecular target: Serine/threonine-protein kinase MAK (Homo sapiens) (UniProt P20794); test: Inhibition of wild-type human partial length MAK (M1 to P314 residues) expressed in bacterial expression system at 10 uM by Kinomescan method relative to control
[15] = molecular target: Receptor tyrosine-protein kinase erbB-4 (Homo sapiens) (UniProt Q15303); test: Inhibition of wild-type human partial length ERBB4 (L690 to K994 residues) expressed in bacterial expression system at 10 uM by Kinomescan method relative to control
[16] = molecular target: Misshapen-like kinase 1 (Homo sapiens) (UniProt Q8N4C8); test: Inhibition of wild-type human partial length MINK (M1 to K312 residues) expressed in mammalian expression system at 10 uM by Kinomescan method relative to control
[17] = molecular target: Calcium/calmodulin-dependent protein kinase type 1B (Homo sapiens) (UniProt Q6P2M8); test: Inhibition of wild-type human partial length CAMK1B (W9 to A311 residues) expressed in mammalian expression system at 10 uM by Kinomescan method relative to control
[18] = molecular target: Activin receptor type-2B (Homo sapiens) (UniProt Q13705); test: Inhibition of wild-type human ACVR2B (H169 to D504 residues) expressed in bacterial expression system at 10 uM by Kinomescan method relative to control
[19] = molecular target: TRAF2 and NCK-interacting protein kinase (Homo sapiens) (UniProt Q9UKE5); test: Inhibition of wild-type human partial length TNIK (D4 to K311 residues) expressed in bacterial expression system at 10 uM by Kinomescan method relative to control
[20] = molecular target: Serine/threonine-protein kinase PLK3 (Homo sapiens) (UniProt Q9H4B4); test: Inhibition of wild-type human partial length PLK3 (A42 to L334 residues) expressed in mammalian expression system at 10 uM by Kinomescan method relative to control
[21] = molecular target: Serine/threonine-protein kinase/endoribonuclease IRE1 (Homo sapiens) (UniProt O75460); test: Inhibition of wild-type human partial length ERN1 (S551 to E852 residues) expressed in mammalian expression system at 10 uM by Kinomescan method relative to control
[22] = molecular target: Ephrin type-A receptor 3 (Homo sapiens) (UniProt P29320); test: Inhibition of wild-type human partial length EPHA3 (D604 to K889 residues) expressed in bacterial expression system at 10 uM by Kinomescan method relative to control
[23] = tested on: Phosphatidylinositol 4,5-bisphosphate 3-kinase catalytic subunit alpha isoform (Homo sapiens), P42336 [E545A]; test: Inhibition of human partial length PIK3CA E545A mutant (R108 to N1068 residues) expressed in mammalian expression system at 10 uM by Kinomescan method relative to control
[24] = molecular target: Serine/threonine-protein kinase ULK1 (Homo sapiens) (UniProt O75385); test: Inhibition of wild-type human partial length ULK1 (M1 to T309 residues) expressed in mammalian expression system at 10 uM by Kinomescan method relative to control
[25] = molecular target: Serine/threonine-protein kinase Nek6 (Homo sapiens) (UniProt Q9HC98); test: Inhibition of wild-type human full length NEK6 (M8 to T313 residues) expressed in bacterial expression system at 10 uM by Kinomescan method relative to control
[26] = molecular target: Tyrosine-protein kinase JAK3 (Homo sapiens) (UniProt P52333); test: Inhibition of wild-type human partial length JAK3 JH1 catalytic domain (I781 to S1124 residues) expressed in mammalian expression system at 10 uM by Kinomescan method relative to control

Sequence of Serine/threonine-protein kinase/endoribonuclease IRE1 (Homo sapiens) (O75460 19-977 limits assumed): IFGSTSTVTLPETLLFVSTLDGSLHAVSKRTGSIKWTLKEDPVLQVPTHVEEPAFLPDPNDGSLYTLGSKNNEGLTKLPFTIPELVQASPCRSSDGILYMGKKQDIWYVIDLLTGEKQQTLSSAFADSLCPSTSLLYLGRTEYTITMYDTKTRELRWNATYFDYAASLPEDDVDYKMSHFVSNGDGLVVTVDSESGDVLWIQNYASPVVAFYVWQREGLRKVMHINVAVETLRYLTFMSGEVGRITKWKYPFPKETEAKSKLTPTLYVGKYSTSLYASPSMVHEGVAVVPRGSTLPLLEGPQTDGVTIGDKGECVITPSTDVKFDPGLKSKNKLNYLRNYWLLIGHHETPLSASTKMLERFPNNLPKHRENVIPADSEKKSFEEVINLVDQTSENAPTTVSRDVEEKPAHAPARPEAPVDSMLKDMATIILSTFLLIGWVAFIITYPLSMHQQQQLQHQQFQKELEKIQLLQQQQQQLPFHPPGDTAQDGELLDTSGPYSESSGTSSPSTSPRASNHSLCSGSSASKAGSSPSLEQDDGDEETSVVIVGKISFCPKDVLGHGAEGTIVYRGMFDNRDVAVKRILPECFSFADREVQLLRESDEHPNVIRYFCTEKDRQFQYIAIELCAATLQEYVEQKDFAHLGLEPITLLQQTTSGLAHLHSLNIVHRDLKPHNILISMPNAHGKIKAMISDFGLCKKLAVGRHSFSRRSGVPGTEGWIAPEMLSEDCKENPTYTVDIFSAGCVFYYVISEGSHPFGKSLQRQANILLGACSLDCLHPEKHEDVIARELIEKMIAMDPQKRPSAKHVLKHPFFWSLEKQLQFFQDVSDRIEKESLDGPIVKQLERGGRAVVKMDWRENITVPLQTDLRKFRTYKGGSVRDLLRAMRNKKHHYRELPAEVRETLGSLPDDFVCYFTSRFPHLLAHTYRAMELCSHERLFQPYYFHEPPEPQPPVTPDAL
Sequence of Serine/threonine-protein kinase ULK1 (Homo sapiens) (O75385 whole entry, the tested form may be a part): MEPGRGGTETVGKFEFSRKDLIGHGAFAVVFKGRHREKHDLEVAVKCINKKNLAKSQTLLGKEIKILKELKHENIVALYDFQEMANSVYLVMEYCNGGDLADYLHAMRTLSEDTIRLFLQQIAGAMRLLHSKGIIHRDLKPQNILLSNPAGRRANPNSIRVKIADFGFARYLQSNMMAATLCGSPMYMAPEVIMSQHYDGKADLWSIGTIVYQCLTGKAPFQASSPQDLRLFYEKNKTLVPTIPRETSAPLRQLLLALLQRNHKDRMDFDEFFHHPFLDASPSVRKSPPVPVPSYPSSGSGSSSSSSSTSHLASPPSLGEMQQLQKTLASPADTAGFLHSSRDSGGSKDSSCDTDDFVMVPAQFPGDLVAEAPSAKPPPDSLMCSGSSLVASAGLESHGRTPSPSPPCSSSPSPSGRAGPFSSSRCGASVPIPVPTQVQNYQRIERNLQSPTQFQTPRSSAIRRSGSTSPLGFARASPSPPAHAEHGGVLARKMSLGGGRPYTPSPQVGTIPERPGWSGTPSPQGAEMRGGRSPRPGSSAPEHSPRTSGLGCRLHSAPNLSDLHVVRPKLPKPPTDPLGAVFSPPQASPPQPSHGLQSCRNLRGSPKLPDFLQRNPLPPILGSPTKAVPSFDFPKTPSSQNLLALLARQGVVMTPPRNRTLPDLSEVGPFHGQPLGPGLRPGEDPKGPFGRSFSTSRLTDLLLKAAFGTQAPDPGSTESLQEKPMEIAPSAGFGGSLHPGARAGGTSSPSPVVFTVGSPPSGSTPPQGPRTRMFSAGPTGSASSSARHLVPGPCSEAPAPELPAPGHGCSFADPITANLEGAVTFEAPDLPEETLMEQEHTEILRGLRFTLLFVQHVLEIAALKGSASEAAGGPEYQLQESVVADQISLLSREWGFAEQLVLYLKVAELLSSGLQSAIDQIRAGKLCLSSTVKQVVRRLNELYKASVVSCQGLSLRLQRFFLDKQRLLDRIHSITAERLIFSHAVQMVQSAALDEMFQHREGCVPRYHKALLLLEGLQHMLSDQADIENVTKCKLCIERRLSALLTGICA
Sequence of Mitogen-activated protein kinase 4 (Homo sapiens) (P31152 whole entry, the tested form may be a part): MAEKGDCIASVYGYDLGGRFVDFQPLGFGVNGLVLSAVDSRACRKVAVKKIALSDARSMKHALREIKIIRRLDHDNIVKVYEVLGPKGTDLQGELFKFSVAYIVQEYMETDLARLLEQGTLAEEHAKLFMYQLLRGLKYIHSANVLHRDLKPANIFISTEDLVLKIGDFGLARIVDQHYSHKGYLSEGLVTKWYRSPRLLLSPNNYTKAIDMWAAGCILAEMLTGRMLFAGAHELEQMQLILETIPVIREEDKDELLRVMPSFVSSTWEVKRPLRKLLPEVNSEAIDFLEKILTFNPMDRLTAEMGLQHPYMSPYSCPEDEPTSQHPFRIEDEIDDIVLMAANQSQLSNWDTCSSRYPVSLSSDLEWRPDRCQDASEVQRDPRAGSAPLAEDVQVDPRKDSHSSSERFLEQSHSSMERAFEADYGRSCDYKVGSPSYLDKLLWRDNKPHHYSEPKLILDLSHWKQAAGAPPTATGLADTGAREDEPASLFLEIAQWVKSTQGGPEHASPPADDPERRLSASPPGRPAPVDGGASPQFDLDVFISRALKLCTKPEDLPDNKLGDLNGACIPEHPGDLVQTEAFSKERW
Sequence of Serine/threonine-protein kinase Nek1 (Homo sapiens) (Q96PY6 whole entry, the tested form may be a part): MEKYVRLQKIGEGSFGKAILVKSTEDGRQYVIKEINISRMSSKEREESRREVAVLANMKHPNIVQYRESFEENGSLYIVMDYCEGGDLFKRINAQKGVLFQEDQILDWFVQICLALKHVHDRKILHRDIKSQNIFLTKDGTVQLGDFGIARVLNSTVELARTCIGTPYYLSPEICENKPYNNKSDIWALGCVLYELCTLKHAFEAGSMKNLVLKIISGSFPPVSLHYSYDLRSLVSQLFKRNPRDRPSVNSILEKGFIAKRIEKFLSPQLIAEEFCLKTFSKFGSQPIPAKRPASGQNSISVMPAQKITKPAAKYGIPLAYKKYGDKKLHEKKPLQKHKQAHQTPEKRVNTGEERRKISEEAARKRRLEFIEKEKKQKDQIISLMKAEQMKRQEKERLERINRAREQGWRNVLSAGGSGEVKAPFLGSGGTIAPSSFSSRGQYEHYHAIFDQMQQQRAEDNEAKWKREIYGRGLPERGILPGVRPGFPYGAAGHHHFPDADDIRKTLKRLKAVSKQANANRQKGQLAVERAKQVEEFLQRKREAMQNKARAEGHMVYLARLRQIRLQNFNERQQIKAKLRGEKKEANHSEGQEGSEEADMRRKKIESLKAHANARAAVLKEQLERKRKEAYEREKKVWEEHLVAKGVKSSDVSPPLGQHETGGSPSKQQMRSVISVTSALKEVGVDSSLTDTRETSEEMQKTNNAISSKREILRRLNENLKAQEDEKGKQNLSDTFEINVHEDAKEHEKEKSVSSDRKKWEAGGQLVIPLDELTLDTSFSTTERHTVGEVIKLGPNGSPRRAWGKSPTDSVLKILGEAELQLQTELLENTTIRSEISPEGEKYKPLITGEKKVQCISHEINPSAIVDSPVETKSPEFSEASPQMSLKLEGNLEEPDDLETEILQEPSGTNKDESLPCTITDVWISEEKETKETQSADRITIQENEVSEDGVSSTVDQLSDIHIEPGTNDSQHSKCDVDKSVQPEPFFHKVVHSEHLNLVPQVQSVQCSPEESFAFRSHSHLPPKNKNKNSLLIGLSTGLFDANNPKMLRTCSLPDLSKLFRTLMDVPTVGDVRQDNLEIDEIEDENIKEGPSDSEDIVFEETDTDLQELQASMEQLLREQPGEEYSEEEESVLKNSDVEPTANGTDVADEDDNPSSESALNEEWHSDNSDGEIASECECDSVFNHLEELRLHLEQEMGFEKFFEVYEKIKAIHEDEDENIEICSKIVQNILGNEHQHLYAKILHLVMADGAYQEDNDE
Sequence of MAP/microtubule affinity-regulating kinase 4 (Homo sapiens) (Q96L34 whole entry, the tested form may be a part): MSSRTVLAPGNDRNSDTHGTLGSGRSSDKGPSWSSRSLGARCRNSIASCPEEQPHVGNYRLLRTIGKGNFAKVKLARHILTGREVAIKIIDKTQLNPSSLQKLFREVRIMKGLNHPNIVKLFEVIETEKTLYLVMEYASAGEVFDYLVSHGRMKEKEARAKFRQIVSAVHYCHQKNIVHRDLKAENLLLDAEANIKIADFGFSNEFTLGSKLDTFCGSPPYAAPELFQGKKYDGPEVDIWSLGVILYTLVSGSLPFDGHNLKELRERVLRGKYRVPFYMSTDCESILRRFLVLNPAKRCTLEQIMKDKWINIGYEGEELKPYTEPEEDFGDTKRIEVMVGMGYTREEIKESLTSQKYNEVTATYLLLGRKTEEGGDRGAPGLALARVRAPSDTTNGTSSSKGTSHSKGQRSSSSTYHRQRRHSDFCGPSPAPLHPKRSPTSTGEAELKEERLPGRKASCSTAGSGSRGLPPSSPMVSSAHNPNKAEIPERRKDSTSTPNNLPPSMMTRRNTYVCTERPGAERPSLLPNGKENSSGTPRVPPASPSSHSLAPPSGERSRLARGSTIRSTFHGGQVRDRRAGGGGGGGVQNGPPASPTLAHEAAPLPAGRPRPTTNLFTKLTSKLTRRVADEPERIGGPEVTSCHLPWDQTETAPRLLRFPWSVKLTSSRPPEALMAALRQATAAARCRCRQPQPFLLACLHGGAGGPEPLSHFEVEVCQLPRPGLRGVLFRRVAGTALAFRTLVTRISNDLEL
Sequence of Calcium/calmodulin-dependent protein kinase type 1B (Homo sapiens) (Q6P2M8 whole entry, the tested form may be a part): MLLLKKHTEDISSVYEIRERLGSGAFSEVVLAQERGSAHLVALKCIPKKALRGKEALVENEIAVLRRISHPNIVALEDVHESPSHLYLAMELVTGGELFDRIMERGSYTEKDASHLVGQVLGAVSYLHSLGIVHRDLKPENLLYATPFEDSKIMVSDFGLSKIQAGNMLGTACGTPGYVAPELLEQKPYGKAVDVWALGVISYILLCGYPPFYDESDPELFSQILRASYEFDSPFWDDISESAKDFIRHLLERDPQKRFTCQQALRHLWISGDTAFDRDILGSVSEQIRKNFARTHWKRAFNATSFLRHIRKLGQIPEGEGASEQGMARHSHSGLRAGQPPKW

O=C(Nc1cccc([C@@H]2CN(c3ncnc4[nH]ccc34)CCN2CCO)c1)Nc1c(F)cccc1N1CCCC1
inhibition [1]: 100% | inhibition [2]: 36% | inhibition [3]: 45% | inhibition [4]: 6.1% | inhibition [5]: 100% | inhibition [6]: 65% | inhibition [7]: 100% | inhibition [8]: 77% | inhibition [9]: 86% | inhibition [10]: 98% | inhibition [11]: 23% | inhibition [12]: 100%

O=C(Nc1cccc([C@H]2CCCN(c3ncnc4[nH]ccc34)C2)c1)Nc1ccccc1N1CCCC1
inhibition [13]: 98% | inhibition [14]: 100% | inhibition [15]: 88% | inhibition [16]: 37% | inhibition [17]: 46% | inhibition [18]: 100% | inhibition [19]: 26% | inhibition [20]: 65% | inhibition [21]: 45% | inhibition [22]: 74% | inhibition [23]: 58% | inhibition [24]: 37% | inhibition [25]: 69% | inhibition [26]: 0.35%
